This note sets out measurements from patent publication US20210238173A1, “MITOGEN-ACTIVATED PROTEIN KINASE KINASE 7 INHIBITORS” (Yeda Research and Development Co. Ltd., priority 2018, published 2021).

The target in one assay is PRKCB1 (PKC beta I) (Homo sapiens, UniProt P05771). The assay can be described thus: Kinome selectivity screen PRKCB1. Format: biochemical. The settings on record: 1 μM compound. How it is done: (§1) Kinome Selectivity Screen:
(§2) Kinase selectivity was assessed using the Life Technologies SelectScreen Kinase Profiling Service in a custom panel of 76 kinases selected to provide broad representative coverage of all kinase families. Kinase activity assays employed either the Z′-LYTE or Adapta assay technologies with ATP concentrations at or near the KM, ATP for each kinase and a test compound concentration of 1 μM.

The target in a further assay is NEK7 (Homo sapiens, UniProt Q8TDX7). The assay can be described thus: Kinome selectivity screen NEK7. Format: biochemical. Particulars: 1 μM compound. How it is done:
as §1, §2

The test system of the next assay is pATF2 in HEK293 cells. Description: pATF2 inhibition in HEK293 cells. It is filed as cell-based. Particulars: Homo sapiens. How it is done:
HEK293, Beas2B and 3T3 cells were plated 24 hours before procedure on 384 well clear bottom black flat plates (Corning) pre-coated with Fibronectin (Sigma) diluted in PBS to a concentration of 5 μg/ml 45 minutes prior to cells introduction. Cells were plated using Multidrop™ Combi reagent dispenser (Thermo Fisher Scientific). Compound, reagents and antibody dispensing as well as washes were performed with a CyBio liquid handler (Analytik). Cells were pre-incubated with a small molecule or up to 1% DMSO for 2 h before fixation. HEK293, 3T3 or Beas2B cells were treated with 0.6M/0.2M/0.2M D-Sorbitol/PBS (Sigma) for 20/40/40 min. respectively, before fixation. Media was removed and wells were immediately fixed with 150 μl per well of 3.7% formaldehyde/PBS fixing solution for 20 min. Formaldehyde was then aspired and cells were permeabilized with 150 μl of 0.5% Triton x-100/PBS solution for 10 min. After aspiration cells were washed with ice-cold methanol and stored at −20° C., for 10 min. Methanol was aspired and cells were blocked with 150 μl blocking buffer (LICOR) for 90 min. Primary antibody Phospho-SAPK/JNK T183/Y185 (CST; 9251S) was diluted 1:1000 in blocking buffer and was applied 50 μl per well, except control wells to which only blocking buffer was applied, O.N. (16 h) at 4° C. with mild shaking. […] Wells signals were analyzed with Odyssey software. […]
To rapidly assess the cellular activity (EC50) with full dose response curves of the MKK7 covalent inhibitors, according to some embodiments of the present invention, an in-cell western assay was adapted to a 384 well plate format over traditional western blot, and monitored phospho-JNK (pJNK) levels in response to osmotic shock. […] The compound's activity was assessed by pre-treating cells with either compound or DMSO for 2 hours, followed by Sorbitol stimulation. The response of pJNK, and its substrates, pc-Jun and pATF2, was measured, as well as pP38, which is a substrate of MKK4 but not MKK7, and pERK in HEK293 cells, and the results are presented in Table 5 below.

The target of another assay is PIM2 (Homo sapiens, UniProt Q9P1W9). The assay can be described thus: Kinome selectivity screen PIM2. It is filed as biochemical. Particulars: 1 μM compound. How it is done: as §1, §2
Another assay addresses FLT1 (VEGFR1) (Homo sapiens, UniProt P17948). Description: Kinome selectivity screen FLT1. The settings on record: 1 μM compound. It is filed as biochemical. How it is done:
as §1, §2

A further assay has as its target PAK4 (Homo sapiens, UniProt O96013). The assay can be described thus: Kinome selectivity screen PAK4. It is filed as biochemical. The settings on record: 1 μM compound. How it is done: as §1, §2
The next assay addresses TEK (Tie2) (Homo sapiens, UniProt Q02763). The assay can be described thus: Kinome selectivity screen TEK. Format: biochemical. The settings on record: 1 μM compound. How it is done: as §1, §2
Another assay has as its target RPS6KB1 (p70S6K) (Homo sapiens, UniProt P23443). The assay can be described thus: Kinome selectivity screen RPS6KB1. It is filed as biochemical. The settings on record: 1 μM compound. How it is done: as §1, §2
The next assay deals with ACVR1B (ALK4) (Homo sapiens, UniProt P36896). Description: Kinome selectivity screen ACVR1B. It is filed as biochemical. The settings on record: 1 μM compound. How it is done: as §1, §2
The target of a further assay is BTK (Homo sapiens, UniProt Q06187). The assay can be described thus: Kinome selectivity screen BTK. The settings on record: 1 μM compound. It is filed as biochemical. How it is done: as §1, §2
The next assay addresses NEK1 (Homo sapiens, UniProt Q96PY6). Description: Kinome selectivity screen NEK1. It is filed as biochemical. Particulars: 1 μM compound. How it is done: as §1, §2
The target of the next assay is ERBB2 (HER2) (Homo sapiens, UniProt P04626). The assay can be described thus: Kinome selectivity screen ERBB2. It is filed as biochemical. The settings on record: 1 μM compound. How it is done:
as §1, §2

The next assay deals with PRKG2 (PKG2) (Homo sapiens, UniProt Q13237). The assay can be described thus: Kinome selectivity screen PRKG2. It is filed as biochemical. The settings on record: 1 μM compound. How it is done: as §1, §2
The next assay addresses DCAMKL2 (DCK2) (Homo sapiens, UniProt Q8N568). The assay can be described thus: Kinome selectivity screen DCAMKL2. The settings on record: 1 μM compound. Format: biochemical. How it is done:
as §1, §2

In the next assay the target is EPHA2 (Homo sapiens, UniProt P29317). Description: Kinome selectivity screen EPHA2. Format: biochemical. The settings on record: 1 μM compound. How it is done:
as §1, §2

The next assay deals with LCK (Homo sapiens, UniProt P06239). The assay can be described thus: Kinome selectivity screen LCK. The settings on record: 1 μM compound. It is filed as biochemical. How it is done:
as §1, §2

Another assay has as its target ROCK1 (Homo sapiens, UniProt Q13464). The assay can be described thus: Kinome selectivity screen ROCK1. The settings on record: 1 μM compound. It is filed as biochemical. How it is done:
as §1, §2

The next assay concerns the target CDK9/cyclin T1 (Homo sapiens, UniProt P50750). Description: Kinome selectivity screen CDK9/cyclin T1. Format: biochemical. Particulars: 1 μM compound. How it is done:
as §1, §2

A further assay addresses GRK4 (Homo sapiens, UniProt P32298). The assay can be described thus: Kinome selectivity screen GRK4. Format: biochemical. The settings on record: 1 μM compound. How it is done:
as §1, §2

A further assay has as its target KIT (Homo sapiens, UniProt P10721). The assay can be described thus: Kinome selectivity screen KIT. Format: biochemical. Particulars: 1 μM compound. How it is done: as §1, §2
For the next assay, the system named is pERK in HEK293 cells. The assay can be described thus: pERK response in HEK293 cells. It is filed as cell-based. The settings on record: at 10 μM. How it is done:
To rapidly assess the cellular activity (EC50) with full dose response curves of the MKK7 covalent inhibitors, according to some embodiments of the present invention, an in-cell western assay was adapted to a 384 well plate format over traditional western blot, and monitored phospho-JNK (pJNK) levels in response to osmotic shock. We first characterized the dynamics of pJNK in response to sorbitol. Sufficient dynamic range for pJNK is achieved at 20 minutes in HEK293 cells and at 40 minutes in 3T3 and Beas2B cells. The compound's activity was assessed by pre-treating cells with either compound or DMSO for 2 hours, followed by Sorbitol stimulation. The response of pJNK, and its substrates, pc-Jun and pATF2, was measured, as well as pP38, which is a substrate of MKK4 but not MKK7, and pERK in HEK293 cells, and the results are presented in Table 5 below.
With similar values for pcJun (2.26 μM and 1.67 μM, respectively) and pATF2 (2.79 μM 5.19 μM, respectively).

A further assay concerns the target CLK1 (Homo sapiens, UniProt P49759). Description: Kinome selectivity screen CLK1. Format: biochemical. Particulars: 1 μM compound. How it is done: as §1, §2

BTK, sequence (Q06187 whole entry): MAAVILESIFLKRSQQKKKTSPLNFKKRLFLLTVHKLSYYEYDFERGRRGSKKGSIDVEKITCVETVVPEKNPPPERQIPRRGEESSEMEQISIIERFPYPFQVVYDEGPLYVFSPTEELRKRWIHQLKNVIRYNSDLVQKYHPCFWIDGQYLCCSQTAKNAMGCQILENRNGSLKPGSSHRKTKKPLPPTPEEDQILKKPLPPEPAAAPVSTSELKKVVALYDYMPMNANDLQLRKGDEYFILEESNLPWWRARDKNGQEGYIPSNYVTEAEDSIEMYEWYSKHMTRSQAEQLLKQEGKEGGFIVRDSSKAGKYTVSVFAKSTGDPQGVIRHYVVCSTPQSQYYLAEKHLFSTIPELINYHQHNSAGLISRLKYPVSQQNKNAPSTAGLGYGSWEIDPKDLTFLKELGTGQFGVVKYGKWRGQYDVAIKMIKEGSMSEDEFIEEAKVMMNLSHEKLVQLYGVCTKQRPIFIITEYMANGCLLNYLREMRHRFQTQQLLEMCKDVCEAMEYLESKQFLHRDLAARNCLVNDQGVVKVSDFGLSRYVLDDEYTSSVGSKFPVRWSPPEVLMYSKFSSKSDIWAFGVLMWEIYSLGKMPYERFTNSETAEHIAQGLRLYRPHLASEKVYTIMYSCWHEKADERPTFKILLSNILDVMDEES
ERBB2 (HER2), sequence (P04626 23-1255): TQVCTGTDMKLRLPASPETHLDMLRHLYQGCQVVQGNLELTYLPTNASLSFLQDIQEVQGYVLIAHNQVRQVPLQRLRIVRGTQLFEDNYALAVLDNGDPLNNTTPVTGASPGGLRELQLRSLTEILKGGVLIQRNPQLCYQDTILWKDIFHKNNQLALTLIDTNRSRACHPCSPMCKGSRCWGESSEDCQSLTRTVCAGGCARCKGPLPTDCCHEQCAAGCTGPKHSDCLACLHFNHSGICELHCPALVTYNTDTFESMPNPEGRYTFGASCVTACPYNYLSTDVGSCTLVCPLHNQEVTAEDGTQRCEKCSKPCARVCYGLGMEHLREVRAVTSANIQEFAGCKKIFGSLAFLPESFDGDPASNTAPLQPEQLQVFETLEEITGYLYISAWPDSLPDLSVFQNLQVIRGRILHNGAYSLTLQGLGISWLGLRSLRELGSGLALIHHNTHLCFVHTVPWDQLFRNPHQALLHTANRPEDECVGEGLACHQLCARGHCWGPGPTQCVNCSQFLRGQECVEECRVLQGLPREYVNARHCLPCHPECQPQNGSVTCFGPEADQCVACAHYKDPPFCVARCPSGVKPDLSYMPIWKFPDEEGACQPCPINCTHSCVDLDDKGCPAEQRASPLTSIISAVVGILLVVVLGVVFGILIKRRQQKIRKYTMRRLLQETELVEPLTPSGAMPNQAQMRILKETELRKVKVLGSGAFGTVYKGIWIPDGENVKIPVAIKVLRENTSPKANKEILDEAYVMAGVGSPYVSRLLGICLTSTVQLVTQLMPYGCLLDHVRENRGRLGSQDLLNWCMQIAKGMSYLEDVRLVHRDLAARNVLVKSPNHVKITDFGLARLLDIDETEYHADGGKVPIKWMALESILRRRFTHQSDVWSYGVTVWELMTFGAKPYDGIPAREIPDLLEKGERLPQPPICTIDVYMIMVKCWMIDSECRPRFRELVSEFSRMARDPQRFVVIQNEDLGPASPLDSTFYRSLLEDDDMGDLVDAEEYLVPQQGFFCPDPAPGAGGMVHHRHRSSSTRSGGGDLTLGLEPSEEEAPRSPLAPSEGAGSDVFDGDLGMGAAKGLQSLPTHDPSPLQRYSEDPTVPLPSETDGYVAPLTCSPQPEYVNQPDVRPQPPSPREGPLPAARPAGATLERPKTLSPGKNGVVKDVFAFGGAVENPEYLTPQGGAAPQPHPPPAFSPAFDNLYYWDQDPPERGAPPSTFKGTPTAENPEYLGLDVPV
EPHA2, sequence (P29317 24-976): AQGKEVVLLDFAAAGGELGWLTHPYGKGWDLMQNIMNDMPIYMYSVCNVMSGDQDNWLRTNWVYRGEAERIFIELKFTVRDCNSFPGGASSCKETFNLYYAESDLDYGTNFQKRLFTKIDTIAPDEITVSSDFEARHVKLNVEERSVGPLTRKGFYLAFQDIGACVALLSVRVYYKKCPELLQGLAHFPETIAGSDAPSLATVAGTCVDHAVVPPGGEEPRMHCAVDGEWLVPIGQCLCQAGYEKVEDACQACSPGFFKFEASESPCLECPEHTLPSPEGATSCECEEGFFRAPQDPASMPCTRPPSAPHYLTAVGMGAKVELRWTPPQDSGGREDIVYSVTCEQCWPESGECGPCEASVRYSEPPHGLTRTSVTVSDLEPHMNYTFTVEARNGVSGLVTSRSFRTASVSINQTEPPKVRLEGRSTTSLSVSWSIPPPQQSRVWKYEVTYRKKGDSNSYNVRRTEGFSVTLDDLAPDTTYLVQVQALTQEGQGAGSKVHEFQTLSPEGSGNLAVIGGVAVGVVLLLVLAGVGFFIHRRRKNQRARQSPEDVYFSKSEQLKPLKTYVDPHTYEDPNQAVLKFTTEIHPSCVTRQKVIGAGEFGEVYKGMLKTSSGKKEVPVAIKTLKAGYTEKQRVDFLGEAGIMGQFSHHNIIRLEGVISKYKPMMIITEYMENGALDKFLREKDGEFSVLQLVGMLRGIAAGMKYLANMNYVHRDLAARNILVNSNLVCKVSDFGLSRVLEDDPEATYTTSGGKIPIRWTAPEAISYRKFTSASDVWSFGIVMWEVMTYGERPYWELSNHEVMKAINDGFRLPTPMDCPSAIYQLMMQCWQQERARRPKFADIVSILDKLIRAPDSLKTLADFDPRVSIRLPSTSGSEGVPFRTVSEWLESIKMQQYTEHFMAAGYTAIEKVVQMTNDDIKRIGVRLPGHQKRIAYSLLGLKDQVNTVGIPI
FLT1 (VEGFR1), sequence (P17948 27-1338): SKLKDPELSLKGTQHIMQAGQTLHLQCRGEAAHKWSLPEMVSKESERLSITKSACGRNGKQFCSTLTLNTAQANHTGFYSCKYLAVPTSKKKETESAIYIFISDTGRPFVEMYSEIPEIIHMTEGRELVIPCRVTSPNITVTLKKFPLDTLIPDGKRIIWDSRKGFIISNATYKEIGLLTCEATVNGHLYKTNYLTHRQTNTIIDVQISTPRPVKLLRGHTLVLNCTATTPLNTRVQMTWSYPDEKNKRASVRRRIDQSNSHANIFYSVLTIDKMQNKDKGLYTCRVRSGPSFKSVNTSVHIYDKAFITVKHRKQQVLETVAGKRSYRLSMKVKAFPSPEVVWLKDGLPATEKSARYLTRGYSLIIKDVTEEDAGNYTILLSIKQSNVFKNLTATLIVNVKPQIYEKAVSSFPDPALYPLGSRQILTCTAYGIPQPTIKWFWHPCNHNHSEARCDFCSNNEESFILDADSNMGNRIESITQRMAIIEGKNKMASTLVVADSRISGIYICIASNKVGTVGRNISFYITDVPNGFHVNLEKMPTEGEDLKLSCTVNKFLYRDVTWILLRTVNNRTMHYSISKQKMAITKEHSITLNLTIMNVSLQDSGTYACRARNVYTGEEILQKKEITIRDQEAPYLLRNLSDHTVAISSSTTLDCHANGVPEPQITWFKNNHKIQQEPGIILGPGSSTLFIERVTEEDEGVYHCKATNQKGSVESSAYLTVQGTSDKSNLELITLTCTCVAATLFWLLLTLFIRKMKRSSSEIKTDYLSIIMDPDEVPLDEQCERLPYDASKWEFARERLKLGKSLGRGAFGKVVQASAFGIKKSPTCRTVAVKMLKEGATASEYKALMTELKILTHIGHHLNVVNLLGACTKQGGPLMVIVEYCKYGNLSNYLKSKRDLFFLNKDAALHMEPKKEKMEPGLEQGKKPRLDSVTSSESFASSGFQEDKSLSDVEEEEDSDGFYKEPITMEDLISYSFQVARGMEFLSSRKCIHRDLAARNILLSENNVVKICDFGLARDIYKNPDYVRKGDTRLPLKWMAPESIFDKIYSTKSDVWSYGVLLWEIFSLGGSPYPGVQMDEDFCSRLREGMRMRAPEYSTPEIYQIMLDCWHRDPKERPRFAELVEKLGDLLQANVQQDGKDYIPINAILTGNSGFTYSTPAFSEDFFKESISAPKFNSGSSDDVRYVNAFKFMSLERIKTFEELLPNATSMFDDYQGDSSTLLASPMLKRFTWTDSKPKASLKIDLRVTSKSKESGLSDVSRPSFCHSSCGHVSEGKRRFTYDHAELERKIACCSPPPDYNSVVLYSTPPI
NEK7, sequence (Q8TDX7 whole entry): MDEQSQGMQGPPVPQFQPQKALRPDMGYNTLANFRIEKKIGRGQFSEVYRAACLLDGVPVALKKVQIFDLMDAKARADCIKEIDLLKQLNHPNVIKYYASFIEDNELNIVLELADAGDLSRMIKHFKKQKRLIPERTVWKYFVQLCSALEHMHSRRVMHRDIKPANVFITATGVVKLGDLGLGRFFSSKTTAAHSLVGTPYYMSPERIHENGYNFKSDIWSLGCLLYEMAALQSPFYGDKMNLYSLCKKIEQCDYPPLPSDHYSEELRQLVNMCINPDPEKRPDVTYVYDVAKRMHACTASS
PIM2, sequence (Q9P1W9 whole entry): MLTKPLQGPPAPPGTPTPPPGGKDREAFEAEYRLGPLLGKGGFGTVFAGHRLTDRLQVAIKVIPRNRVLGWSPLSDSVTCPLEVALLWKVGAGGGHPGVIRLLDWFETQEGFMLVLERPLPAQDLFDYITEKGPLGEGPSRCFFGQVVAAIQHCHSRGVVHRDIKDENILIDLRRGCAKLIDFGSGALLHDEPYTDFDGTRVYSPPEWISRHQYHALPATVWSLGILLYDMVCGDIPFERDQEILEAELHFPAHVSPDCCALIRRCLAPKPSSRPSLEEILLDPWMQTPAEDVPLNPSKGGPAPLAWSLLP

A word on the inhibition: it is the drop in the measured response relative to a control, in per cent. What is called EC50 is the concentration that produces a half-maximal response. A higher EC50 goes with a need for much substance. As to `C=CC(=O)Nc1cccc(-c2n[nH]c3ccccc23)c1` [GO32], the inhibition at 1 µM at PRKCB1 (PKC beta I) was 1%; against NEK7 it was 8%; on PIM2, -2%; at FLT1 (VEGFR1) it was -1%; on PAK4 it was -11%; on TEK (Tie2), 25%. The inhibition at 1 µM against RPS6KB1 (p70S6K) was 5%; against ACVR1B (ALK4) it was -8%; against BTK, 11%; at NEK1, 5%; at ERBB2 (HER2), 1%; at PRKG2 (PKG2), -2%. For the same molecule, the inhibition at 1 µM against DCAMKL2 (DCK2) is -2%; against EPHA2, -16%; against LCK, 5%; at ROCK1, -3%; against CDK9/cyclin T1, 3%; at GRK4, -5%. Further, the inhibition at 1 µM on KIT came out at 17%; on CLK1, 14%. In addition, the midpoint of the response in the assay on pATF2 in HEK293 cells, the EC50, lay at 2.79 µM. In addition, the “decrease in pERK” value in the assay with pERK in HEK293 cells is “about 25%”.

`C=CC(=O)Nc1cccc(-c2n[nH]c3cc(C)ccc23)c1` [GO80]: the inhibition at 1 µM at PRKCB1 (PKC beta I) is 5%; at NEK7, 7%; against PIM2 it was 3%; on FLT1 (VEGFR1), 2%; against PAK4 it was -16%; against TEK (Tie2) it was 1%. For the same molecule, the inhibition at 1 µM against RPS6KB1 (p70S6K) is 0%; against ACVR1B (ALK4), 5%; at BTK, 15%; against NEK1, 2%; on ERBB2 (HER2), -1%; against PRKG2 (PKG2) it was 0%. Moreover, the inhibition at 1 µM on DCAMKL2 (DCK2) was -1%; at EPHA2 it was -13%; against LCK, 5%; on ROCK1, 3%; at CDK9/cyclin T1, 5%; against GRK4, -3%. Moreover, the inhibition at 1 µM against KIT amounted to 10%; against CLK1 it was 2%. Besides, a half-maximal response with pATF2 in HEK293 cells (EC50) required 5.19 µM. Moreover, the “effect on pERK levels” value in the assay with pERK in HEK293 cells is recorded as “did not affect”.
